Where a name gives a salt, the structure may show the parent alone.
Experiments:
[1] = target: Truncated G2019 human LRRK2 (1326-2527) (Homo sapiens (Human), UniProt Q5S007); test: Truncated G2019 human LRRK2 (1326-2527) inhibition mass spectrometry assay; assay type: biochemical; details: 6HIS-Tev-LRRK2 (1326-2527), 25 uM LRRKtide, 20 uM ATP; for IC50: read-out: Truncated G2019 human LRRK2 inhibition mass spectrometry assay (pIC50) (converted)
Description: 1) Truncated G2019 Human LRRK2 (1326-2527) Inhibition Mass Spectrometry Assay
A LRRK2 cDNA encoding residues 1326-2527 was received from Dundee University (described in M. Jaleel et al., 2007, Biochem J, 405: 407-417). This gene fragment was subcloned into pFB-HTb (Invitrogen) using BamHI and NotI restriction sites. The LRRK2 plasmid was recombined into the baculovirus genome according to the BAC-to-BAC protocol described by Invitrogen. Transfection into Spodoptera frugiperda (Sf9) insect cells was performed using Cellfectin (Invitrogen), according to the manufacturer's protocol to generate P1 and P2 baculovirus stocks.
Sf9 cells were grown in HyClone SFX (Thermo Scientific) growth media at 27° C., 80 rpm in shake flask until of a sufficient volume to inoculate a bioreactor. The cells were grown in a 20 litre working volume Wave bioreactor (GE Healthcare) at 27° C., 50% dissolved oxygen and an agitation rate 22 rocks per minute, 10 degree rock angle, 200 ml/min air with a cell concentration of approximately 6xe6 cells/ml. The cells were infected with P2 Baculovirus at a multiplicity of infection (MOI) of 3. The cultivation was continued for a 48 hour expression phase. The infected cells were removed from the growth media by centrifugation at 2500 g using a Sorvall RC 3C Plus centrifuge at 2500 g for 20 minutes. The cell pellet was immediately frozen and subsequently supplied for purification.
A 260 g pellet was allowed to thaw in a water bath at 27° C. with 800 ml lysis buffer/buffer A (50 mm Tris-HCl pH 8.5, 300 mM NaCl, 1 mm DTT, 10% glycerol, 1 ml/L Calbiochem complete protease inhibitor cocktail and benzonase (50 ul/800 ml)) before being dounce homogenised on ice using 20 strokes per 100 ml. The suspension was packed in ice and sonicated at 50% amplitude for 3 min 10 sec on/off using a ¾″ probe. The suspension was then centrifuged at 100,000 g for 90 min, at 4° C.
The lysate (700 ml) was decanted from the insoluble pellet and contacted for 3h at 4° C. with 10 ml His bind Ni NTA resin by end over end mixing. The resin was recovered by centrifugation, 3000 g, 5 min at 4° C., and packed in an XK16 column. The column was then washed with 10 column volumes buffer A, 10 column volumes buffer B (buffer A+1M NaCl) and 10 column volumes buffer C (buffer A+20 mM imidazole). The column was then eluted with 15 column volumes buffer D (buffer A+300 mM imidazole) collecting 2 ml fractions. All washes and elution were conducted at 4 ml/min.
Fractions identified by SDS-PAGE as containing protein of interest were pooled and loaded directly onto a 320 ml SEC Superdex 200 pg column that was pre-equilibrated with buffer E (50 mM Tris-HCl pH 8.5, 300 mM NaCl, 10% glycerol, 1 mM DTT). The column was loaded and eluted with 1.2 column volumes buffer E at 2 ml/min collecting 2 ml fractions. Fractions identified by SDS-PAGE as containing protein of interest were tested for activity.
Production of LRRKtide for LRRK2 Inhibition Mass Spectrometry Assay
The ‘LRRKtide’ peptide (SEQ ID NO. 10) was synthesized as follows. The protected peptide was assembled on a solid-phase synthesiser using preloaded Wang resin and utilising standard Fmoc synthesis protocols. The crude peptide was obtained after cleavage from the resin with a mixture of trifluoroacetic acid (TFA), triisopropylsilane and water (95:2.5:2.5) for 3 hours at room temperature and was then purified using a C18 reverse-phase column utilising a 0.1% TFA-buffered water/acetonitrile gradient. The resulting fractions were analysed and fractions which were >95% pure by analytical HPLC and giving the correct molecular weight (mw) (by MALDiTOF mass spectroscopy) were pooled and freeze dried. The final material was analysed by HPLC and MALDiTOF mass spectroscopy.
Truncated G2019 Human LRRK2 (1326-2527) Inhibition Mass Spectrometry Assay […]

[2] = target: LRRK2 Ser935 phosphorylation in SH-SY5Y cells over-expressing recombinant full length LRRK2 (Homo sapiens (Human), UniProt Q5S007); test: Recombinant cellular LRRK2 AlphaScreen assay; assay type: cell-based; details: 60 minutes, read-out: Recombinant cellular LRRK2 alphaScreen assay (pIC50) (converted)
Description: To determine the activity of compounds against LRRK2 kinase activity in cells, the observed LRRK2 kinase-dependent modulation of LRRK2 Ser 935 phosphorylation (Dzamko et al., 2010, Biochem. J. 430: 405-413) was utilized to develop a quantitative 384 well plate-based immunoassay of LRRK2 Ser935 phosphorylation in the human neuroblastoma cell line SH-SY5Y, engineered to over-express recombinant full length LRRK2 protein.
A BacMam virus expressing full length recombinant LRRK2 was purchased from Invitrogen and amplified by inoculation of SF-9 cells at MOI 0.3 for 4-5 days in Sf-900 III SFM medium supplemented with 3% fetal bovine serum. Infected cell cultures were then centrifuged at 2000 g for 20 minutes, viral supernatant titer determined by anti-gp64 plaque assay and stored at 4° C.
Affinity-purified anti-phospho LRRK2 Ser935 sheep polyclonal antibody (Dzamko et al., 2010, Biochem. J. 430: 405-413) was biotinylated by standard methods (PerkinElmer). Anti-LRRK2 rabbit polyclonal antibody was purchased from Novus Biologicals. AlphaScreen Protein A IgG Kit (including acceptor and donor beads) was purchased from Perkin Elmer.
SH-SY5Y cells were grown in DMEM/F12 medium with 10% dialysed fetal bovine serum and harvested by treatment with 0.5% trypsin-EDTA for 5 minutes at 37° C. followed by centrifugation at 1000 rpm for 4 minutes. The cell pellet was resuspended in Opti-MEM reduced serum media (Invitrogen) at 200,000 cells/ml and mixed with the BacMam LRRK2 virus at M01=50. 50 μl cell solutions were then dispensed to each well of a 384-well plate and incubated at 37° C., 5% CO2 for 24 hours.
Serial dilutions of test compounds were prepared in Opti-MEM reduced serum media (Invitrogen) and 5.6 ul transferred from compound plate to cell assay plate to achieve a top final assay concentration of 10 uM. DMSO was used in certain wells as controls. Cells were incubated at 37° C., 5% CO2 for 60 minutes. The medium was then removed and cells lysed by addition of 20 ul cell lysis buffer (Cell Signaling Technology) and incubation at 4° C. for 20 minutes. 10 ul of antibody/acceptor bead mix [( 1/1000 biotinylated-pS935 LRRK2 antibody, 1/1000 total-LRRK2 antibody, 1/100 Acceptor beads in AlphaScreen detection buffer (25 mM Hepes (pH 7.4), 0.5% Triton X-100, 1 mg/ml Dextran 500 and 0.1% BSA)] was then added to each well and plates incubated for 2 hours at ambient temperature in the dark. 10 μl of donor beads solution (1/33.3 donor beads in AlphaScreen detection buffer) was then added to each well. Following incubation for a further 2 hours at ambient temperature in the dark, plates were read on an EnVision™ plate reader at emission 520-620 nm with excitation 680 nm. Dose response curve data was based on sigmoidal dose-response model.

Sequence of Truncated G2019 human LRRK2 (1326-2527) (Q5S007 1326-2527): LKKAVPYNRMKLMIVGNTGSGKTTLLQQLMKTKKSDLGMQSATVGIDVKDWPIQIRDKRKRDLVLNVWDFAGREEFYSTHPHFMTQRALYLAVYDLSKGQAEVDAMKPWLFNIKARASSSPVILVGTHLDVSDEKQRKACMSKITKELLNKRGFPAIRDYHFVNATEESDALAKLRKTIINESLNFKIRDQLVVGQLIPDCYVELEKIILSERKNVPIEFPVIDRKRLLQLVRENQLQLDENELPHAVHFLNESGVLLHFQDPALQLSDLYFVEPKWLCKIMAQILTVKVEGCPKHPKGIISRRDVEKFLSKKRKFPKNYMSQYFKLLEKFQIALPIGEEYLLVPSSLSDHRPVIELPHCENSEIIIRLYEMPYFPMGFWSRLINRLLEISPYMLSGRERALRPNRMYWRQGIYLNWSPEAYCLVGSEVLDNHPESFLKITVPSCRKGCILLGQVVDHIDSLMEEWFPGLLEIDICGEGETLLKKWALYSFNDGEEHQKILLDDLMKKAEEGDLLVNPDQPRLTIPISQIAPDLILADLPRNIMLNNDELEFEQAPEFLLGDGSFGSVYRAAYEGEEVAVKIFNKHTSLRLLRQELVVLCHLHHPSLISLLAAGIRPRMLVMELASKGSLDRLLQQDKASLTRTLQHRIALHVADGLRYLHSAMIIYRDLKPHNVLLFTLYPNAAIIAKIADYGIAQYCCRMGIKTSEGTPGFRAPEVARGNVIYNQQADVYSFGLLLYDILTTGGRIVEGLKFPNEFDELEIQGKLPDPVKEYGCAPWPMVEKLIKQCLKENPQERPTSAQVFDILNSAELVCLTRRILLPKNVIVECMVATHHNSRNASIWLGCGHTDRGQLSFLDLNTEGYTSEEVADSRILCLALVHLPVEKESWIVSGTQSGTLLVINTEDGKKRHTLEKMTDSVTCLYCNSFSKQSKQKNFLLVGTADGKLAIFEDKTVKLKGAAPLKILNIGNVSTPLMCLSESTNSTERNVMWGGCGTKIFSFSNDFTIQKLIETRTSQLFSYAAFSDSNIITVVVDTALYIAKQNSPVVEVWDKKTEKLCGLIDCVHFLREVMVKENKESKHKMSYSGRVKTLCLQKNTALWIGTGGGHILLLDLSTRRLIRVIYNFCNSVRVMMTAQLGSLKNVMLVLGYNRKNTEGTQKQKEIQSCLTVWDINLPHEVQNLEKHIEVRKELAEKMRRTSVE
Sequence of LRRK2 Ser935 phosphorylation in SH-SY5Y cells over-expressing recombinant full length LRRK2 (Q5S007 whole entry): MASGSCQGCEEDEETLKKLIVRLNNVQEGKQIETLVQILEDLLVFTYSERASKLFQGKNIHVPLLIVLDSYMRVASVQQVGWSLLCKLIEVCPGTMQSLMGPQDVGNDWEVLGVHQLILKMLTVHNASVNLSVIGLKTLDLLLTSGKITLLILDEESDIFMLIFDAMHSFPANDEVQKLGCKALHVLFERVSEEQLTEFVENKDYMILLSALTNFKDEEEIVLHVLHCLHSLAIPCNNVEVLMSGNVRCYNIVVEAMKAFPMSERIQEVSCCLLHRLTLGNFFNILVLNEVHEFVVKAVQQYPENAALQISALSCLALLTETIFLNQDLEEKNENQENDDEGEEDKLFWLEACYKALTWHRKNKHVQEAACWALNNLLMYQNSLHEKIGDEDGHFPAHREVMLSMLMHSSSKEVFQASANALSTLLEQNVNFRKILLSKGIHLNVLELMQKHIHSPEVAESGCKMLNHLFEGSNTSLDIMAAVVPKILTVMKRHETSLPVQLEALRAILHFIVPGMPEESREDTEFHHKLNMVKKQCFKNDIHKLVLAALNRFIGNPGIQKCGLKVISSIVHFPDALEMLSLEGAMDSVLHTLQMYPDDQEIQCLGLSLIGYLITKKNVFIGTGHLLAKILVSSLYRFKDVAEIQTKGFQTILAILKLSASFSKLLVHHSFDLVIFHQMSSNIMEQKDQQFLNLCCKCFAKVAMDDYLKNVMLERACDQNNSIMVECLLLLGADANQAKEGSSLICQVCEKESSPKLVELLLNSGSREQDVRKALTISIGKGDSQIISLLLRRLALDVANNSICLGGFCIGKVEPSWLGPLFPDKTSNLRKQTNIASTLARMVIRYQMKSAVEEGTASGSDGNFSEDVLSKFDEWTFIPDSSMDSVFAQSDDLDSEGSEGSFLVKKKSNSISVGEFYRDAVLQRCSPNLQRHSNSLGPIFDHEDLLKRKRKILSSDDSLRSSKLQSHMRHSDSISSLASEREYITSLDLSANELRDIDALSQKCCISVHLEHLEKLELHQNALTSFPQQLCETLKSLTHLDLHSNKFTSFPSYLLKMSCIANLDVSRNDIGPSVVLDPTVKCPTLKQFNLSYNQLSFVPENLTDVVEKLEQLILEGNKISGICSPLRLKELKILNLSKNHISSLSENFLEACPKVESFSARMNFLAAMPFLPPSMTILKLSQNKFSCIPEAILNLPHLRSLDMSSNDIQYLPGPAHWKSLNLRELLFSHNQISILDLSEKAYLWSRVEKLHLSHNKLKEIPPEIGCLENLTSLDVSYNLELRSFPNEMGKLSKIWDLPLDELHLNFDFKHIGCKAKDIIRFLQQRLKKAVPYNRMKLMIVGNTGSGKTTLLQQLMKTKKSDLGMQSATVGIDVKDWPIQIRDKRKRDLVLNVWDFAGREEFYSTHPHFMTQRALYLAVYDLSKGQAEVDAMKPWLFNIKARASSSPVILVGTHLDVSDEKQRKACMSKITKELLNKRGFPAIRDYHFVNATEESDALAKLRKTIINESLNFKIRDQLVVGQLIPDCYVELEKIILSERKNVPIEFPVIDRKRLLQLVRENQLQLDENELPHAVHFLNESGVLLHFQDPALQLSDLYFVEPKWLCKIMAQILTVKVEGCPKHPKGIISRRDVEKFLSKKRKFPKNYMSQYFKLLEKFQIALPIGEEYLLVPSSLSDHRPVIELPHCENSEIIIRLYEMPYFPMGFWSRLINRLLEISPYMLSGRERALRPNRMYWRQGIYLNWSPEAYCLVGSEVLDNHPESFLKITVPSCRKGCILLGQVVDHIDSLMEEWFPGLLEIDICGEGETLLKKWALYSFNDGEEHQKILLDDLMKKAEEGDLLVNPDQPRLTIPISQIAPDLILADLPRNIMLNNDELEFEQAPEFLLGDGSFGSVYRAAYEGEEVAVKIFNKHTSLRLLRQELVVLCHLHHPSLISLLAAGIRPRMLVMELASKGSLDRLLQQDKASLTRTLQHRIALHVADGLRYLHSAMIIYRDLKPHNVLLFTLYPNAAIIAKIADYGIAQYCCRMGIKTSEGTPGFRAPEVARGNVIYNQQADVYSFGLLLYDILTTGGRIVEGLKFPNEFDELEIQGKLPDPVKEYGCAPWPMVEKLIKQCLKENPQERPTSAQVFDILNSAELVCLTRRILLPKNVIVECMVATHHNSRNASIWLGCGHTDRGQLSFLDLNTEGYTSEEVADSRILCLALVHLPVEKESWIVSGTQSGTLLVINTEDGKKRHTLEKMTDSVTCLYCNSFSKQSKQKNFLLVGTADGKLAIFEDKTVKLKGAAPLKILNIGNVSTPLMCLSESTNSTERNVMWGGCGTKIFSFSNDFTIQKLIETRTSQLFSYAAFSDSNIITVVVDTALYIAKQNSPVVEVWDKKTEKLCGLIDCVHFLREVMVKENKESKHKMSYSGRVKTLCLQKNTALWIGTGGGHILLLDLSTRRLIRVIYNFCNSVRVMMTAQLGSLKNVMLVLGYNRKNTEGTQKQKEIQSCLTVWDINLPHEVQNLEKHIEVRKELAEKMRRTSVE

Compound | IC50 [1] | IC50 [2] | Truncated G2019 human LRRK2 inhibition mass spectrometry assay (pIC50) [1]
COc1nc(N2CCOCC2)cc(-n2ncc3cc(C)c([C@H]4CCNC[C@H]4F)cc32)n1 (single isomer, unassigned) [Example E62, (cis)-4-(6-(6-(3-Fluoropiperidin-4-yl)-5-methyl-1H-indazol-1-yl)-2-methoxypyrimidin-4-yl)morpholine hydrochloride] | 7.94 nM | 50.1 nM | –
COc1nc(N2CC(C#N)C2)cc(-n2ncc3cc(C)c(C4CCNCC4(F)F)cc32)n1 (single isomer, unassigned) [Example E66, 1-(6-(6-(3,3-Difluoropiperidin-4-yl)-5-methyl-1H-indazol-1-yl)-2-methoxypyrimidin-4-yl)azetidine-3-carbonitrile] | 31.6 nM | 126 nM | –
Cc1nc(N2CC(O)C2)cc(-n2ncc3cc(C)c(C4CCN(C)CC4F)cc32)n1 (single isomer, unassigned) [Example E41, (cis)-1-(6-(6-(3-Fluoro-1-methylpiperidin-4-yl)-5-methyl-1H-indazol-1-yl)-2-methylpyrimidin-4-yl)azetidin-3-ol] | – | 126 nM | 7.9
COc1nc(N2CCNCC2)cc(-n2ncc3cc(C)c(N4CCOCC4)cc32)n1 [Example E117, 4-(1-(2-Methoxy-6-(piperazin-1-yl)pyrimidin-4-yl)-5-methyl-1H-indazol-6-yl)morpholine] | 25.1 nM | 631 nM | –
CNC(=O)[C@H]1CN(c2cc(-n3ncc4cc(C)c(C5CCN(C)CC5(F)F)cc43)nc(OC)n2)CCO1 (single isomer, unassigned) [Example E18] | 12.6 nM | 12.6 nM | –
COc1nc(N2CCOCC2)cc(-n2ncc3cc(C)c(C4CCN(C5COC5)CC4(F)F)cc32)n1 (single isomer, unassigned) [Example E22, 4-(6-(6-(3,3-Difluoro-1-(oxetan-3-yl)piperidin-4-yl)-5-methyl-1H-indazol-1-yl)-2-methoxypyrimidin-4-yl)morpholine] | 7.94 nM | 12.6 nM | –
Cc1nc(N2CC(O)C2)cc(-n2ncc3cc(C)c(C4CCN(C)CC4F)cc32)n1 (single isomer, unassigned) [Example E40, (cis)-1-(6-(6-(3-Fluoro-1-methylpiperidin-4-yl)-5-methyl-1H-indazol-1-yl)-2-methylpyrimidin-4-yl)azetidin-3-ol] | 12.6 nM | 50.1 nM | –
COc1nc(N2CC(O)C2)cc(-n2ncc3cc(C)c(C4CCN(C5COC5)CC4)cc32)n1 [Example E79, 1-(2-Methoxy-6-(5-methyl-6-(1-(oxetan-3-yl)piperidin-4-yl)-1H-indazol-1-yl)pyrimidin-4-yl)azetidin-3-ol] | 12.6 nM | 10 nM | –
COc1nc(N2CCOCC2)cc(-n2ncc3cc(C)c(C4CCN(C)CC4(F)F)cc32)n1 (single isomer, unassigned) [Example E4, 4-(6-(6-(3,3-Difluoro-1-methylpiperidin-4-yl)-5-methyl-1H-indazol-1-yl)-2-methoxypyrimidin-4-yl)morpholine] | 7.94 nM | 25.1 nM | –
COc1nc(N2CC(O)C2)cc(-n2ncc3cc(C)c(C4CCN(C)CC4F)cc32)n1 (single isomer, unassigned) [Example E38, (cis)-1-(6-(6-(3-Fluoro-1-methylpiperidin-4-yl)-5-methyl-1H-indazol-1-yl)-2-methoxypyrimidin-4-yl)azetidin-3-ol] | – | 31.6 nM | 8
COc1nc(N2CC(O)C2)cc(-n2ncc3cc(C)c([C@@H]4CN(C)C[C@@H]4F)cc32)n1 (single isomer, unassigned) [Example E74, (cis)-1-(6-(6-(4-Fluoro-1-methylpyrrolidin-3-yl)-5-methyl-1H-indazol-1-yl)-2-methoxypyrimidin-4-yl)azetidin-3-ol] | – | > 10000 nM | –
Cc1nc(N2CC(O)C2)cc(-n2ncc3cc(C)c(C4CCOCC4)cc32)n1 [Example E89, 1-(2-Methyl-6-(5-methyl-6-(tetrahydro-2H-pyran-4-yl)-1H-indazol-1-yl)pyrimidin-4-yl)azetidin-3-ol] | – | ≤ 100 nM | –
Cc1cc2cnn(-c3cc(N4CC(O)C4)nc(OC(F)F)n3)c2cc1C1CCN(C)CC1F (single isomer, unassigned) [Example E48, (cis)-1-(2-(Difluoromethoxy)-6-(6-(3-fluoro-1-methylpiperidin-4-yl)-5-methyl-1H-indazol-1-yl)pyrimidin-4-yl)azetidin-3-ol] | ≤ 10000 nM | – | –
COc1nc(N2CC(O)C2)cc(-n2ncc3cc(C)c(C4(F)CCCN(C)C4)cc32)n1 (single isomer, unassigned) [Example E221, 1-(6-(6-(3-Fluoro-1-methylpiperidin-3-yl)-5-methyl-1H-indazol-1-yl)-2-methoxypyrimidin-4-yl)azetidin-3-ol] | – | > 10000 nM | –
CCN1CC[C@H](c2cc3c(cnn3-c3cc(N4CC(O)C4)nc(C)n3)cc2C)[C@H](F)C1 (single isomer, unassigned) [Example E146, (cis)-1-(6-(6-(1-Ethyl-3-fluoropiperidin-4-yl)-5-methyl-1H-indazol-1-yl)-2-methylpyrimidin-4-yl)azetidin-3-ol] | – | ≤ 100 nM | –
